Test results reported in patent US9458101B2 (priority 2009, dated 2016).

How the values were obtained:
[1] = system: A549 (Human lung carcinoma); assay: Cytotoxicity testing (MTS) on A549; format: cell-based
Experimental: (§1) Cell lines used were A549 (Human lung carcinoma), HeLa (Human cervical carcinoma), MCF-7 (Human mammary gland adenocarcinoma), CEM (Human T-lymphoblastoid from ALL (Acute lymphoblastic leukemia)), M010B (Human glioma), M006X (Human glioma) and Jurkat (Human T-cell leukemia).
(§2) A series of dilutions were prepared and a wavelength scan of the diluted solution was used to determine the wavelength of maximum absorbance for each compound. Five standardized drug concentrations were scanned at this pre-determined wavelength to obtain an estimate of the compound's extinction coefficient.
(§3) A primary MTS assay was used to test the optimal number of cells for cytotoxicity assays. Cells were trypsinized, counted and introduced into seven lanes of a 96-well plate at different cell numbers (eight replicates per lane). Optimal cell numbers were determined after 72 and 96 hours of growth and were used in subsequent cytotoxicity assays. […] Cell viability was determined using the Cell Titer 96 AQueous One Solution Cell Proliferation Assay (Promega, U.S.A.).
(§4) Fits were performed using a dose-response model ideal for data showing an initial response plateau, a transition region, and a final response plateau.
(§5) [formula] […] Itop is the response obtained at very low/no drug concentration. The data and all parameters were normalized to Itop−Ibot, a measure of the maximum effect of the drug.

[2] = system: HeLa (Human cervical carcinoma); assay: Cytotoxicity testing (MTS) on HeLa; format: cell-based
Experimental: as §1, §2, §3, §4, §5

[3] = system: MCF-7 (Human mammary gland adenocarcinoma); assay: Cytotoxicity testing (MTS) on MCF-7; format: cell-based
Experimental: as §1, §2, §3, §4, §5

[4] = system: CEM (Human T-lymphoblastoid from ALL); assay: Cytotoxicity testing (MTS) on CEM; format: cell-based
Experimental: as §1, §2, §3, §4, §5

[5] = system: M010B (Human glioma); assay: Cytotoxicity testing (MTS) on M010B; format: cell-based
Experimental: as §1, §2, §3, §4, §5

[6] = system: M006X (Human glioma); assay: Cytotoxicity testing (MTS) on M006X; format: cell-based
Experimental: as §1, §2, §3, §4, §5

[7] = system: A549, HeLa, MCF-7 and CEM cell lines; assay: Cytotoxicity, mean over A549, HeLa, MCF-7 and CEM cell lines; conditions: for average IC50 values compared with colchicine: average values of Table 3; for cytotoxicity compared with colchicine: cytotoxicity assays; for IC50 [log10 M] (mean logIC50): mean over A549, HeLa, MCF-7 and CEM cell lines
Description: as §1, §3, §5
Cytotoxicity screening was performed on a number of cell lines based on the cancer of origin and differing morphologies.

| Structure (SMILES) | Fraction of cells that survive at the highest drug concentrations (Ibot) [1] | logIC50 [1] | Fraction of cells that survive at the highest drug concentrations (Ibot) [2] | logIC50 [2] | Fraction of cells that survive at the highest drug concentrations (Ibot) [3] | logIC50 [3] | Fraction of cells that survive at the highest drug concentrations (Ibot) [4] | logIC50 [4] | Fraction of cells that survive at the highest drug concentrations (Ibot) [5] | logIC50 [5] | Fraction of cells that survive at the highest drug concentrations (Ibot) [6] | logIC50 [6] | average IC50 values compared with colchicine [7] | cytotoxicity compared with colchicine [7] | IC50 [log10 M] (mean logIC50) [7] | IC50 ([7]; cytotoxicity experiments, most potent derivative) |
| --- | --- | --- | --- | --- | --- | --- | --- | --- | --- | --- | --- | --- | --- | --- | --- | --- |
| CCOc1cc2c(c(OC)c1OC)-c1ccc(SC)c(=O)cc1[C@@H](NC(C)=O)CC2 [Compound 42, N-[(7S)-3-ethoxy-1,2-dimethoxy-10-methylsulfanyl-9-oxo-5,6,7,9-tetrahydrobenzo[α]heptalen-7-yl]acetamide] | 0.256 ± 0.015 | −8.37 ± 0.10 log10 M | 0.046 ± 0.026 | −8.47 ± 0.14 log10 M | 0.538 ± 0.010 | −8.28 ± 0.10 log10 M | 0.026 ± 0.018 | −8.64 ± 0.09 log10 M | 0.327 ± 0.023 | −8.27 ± 0.12 log10 M | 0.184 ± 0.021 | −8.83 ± 0.08 log10 M | stronger than colchicine | consistently the most effective | −8.44 ± 0.11 log10 M | – |
| COc1cc2c(c(OCC(C)C)c1OC)-c1ccc(OC)c(=O)cc1[C@@H](NC(C)=O)CC2 [Compound 7a, N-[(7S)-2,3,10-trimethoxy-1-(2-methylpropoxy)-9-oxo-5,6,7,9-tetrahydrobenzo[α]heptalen-7-yl]acetamide] | 0.222 ± 0.026 | −6.52 ± 0.13 log10 M | 0.051 ± 0.032 | −6.66 ± 0.11 log10 M | 0.406 ± 0.014 | −6.17 ± 0.06 log10 M | 0.022 ± 0.020 | −6.76 ± 0.08 log10 M | 0.239 ± 0.031 | −6.60 ± 0.14 log10 M | 0.197 ± 0.024 | −7.12 ± 0.06 log10 M | – | moderately better than colchicine | −6.53 ± 0.10 log10 M | – |
| COc1cc2c(c(OC(=O)C(C)C)c1OC)-c1ccc(OC)c(=O)cc1[C@@H](NC(C)=O)CC2 [Compound 5, N-[(7S)-1-(((methyl)ethyl)carbonyloxy)-2,3,10-trimethoxy-9-oxo-5,6,7,9-tetrahydrobenzo [α]heptalen-7-yl]acetamide] | 0.265 ± 0.043 | −5.09 ± 0.06 log10 M | 0.025 ± 0.044 | −5.46 ± 0.13 log10 M | 0.451 ± 0.025 | −5.25 ± 0.08 log10 M | −0.003 ± 0.048 | −5.51 ± 0.13 log10 M | 0.258 ± 0.024 | −5.22 ± 0.06 log10 M | 0.031 ± 0.018 | −6.12 ± 0.04 log10 M | – | – | −5.33 ± 0.10 log10 M | – |
| C=CCOc1cc2c(c(OC)c1OC)-c1ccc(SC)c(=O)cc1[C@@H](NC(C)=O)CC2 [Compound 41, N-[(7S)-1,2-dimethoxy-10-methylsulfanyl-9-oxo-3-(prop(2-en)oxy)-5,6,7,9-tetrahydrobenzo[α]heptalen-7-yl]acetamide] | 0.243 ± 0.012 | −8.50 ± 0.11 log10 M | 0.039 ± 0.016 | −8.45 ± 0.11 log10 M | 0.472 ± 0.016 | −8.31 ± 0.12 log10 M | −0.050 ± 0.022 | −8.29 ± 0.10 log10 M | – | – | – | – | stronger than colchicine | – | −8.39 ± 0.11 log10 M | – |
| COc1cc2c(c(OC)c1OC)-c1ccc(OC)c(=O)cc1[C@@H](NC(C)=O)CC2 [Colchicine, N-[(7S)-1,2,3,10-tetramethoxy-9-oxo-5,6,7,9-tetrahydrobenzo[α]heptalen-7-yl]acetamide, reference compound] | 0.118 ± 0.042 | – | 0.061 ± 0.048 | – | 0.377 ± 0.010 | – | 0.016 ± 0.021 | – | 0.107 ± 0.017 | – | 0.026 ± 0.005 | – | – | – | – | – |
| C=CCOc1c(OC)c(OC)cc2c1-c1ccc(OC)c(=O)cc1[C@@H](NC(C)=O)CC2 [Compound 9] | 0.227 ± 0.021 | −6.66 ± 0.10 log10 M | 0.082 ± 0.018 | −7.35 ± 0.09 log10 M | 0.484 ± 0.009 | −7.10 ± 0.05 log10 M | −0.004 ± 0.015 | −7.46 ± 0.08 log10 M | 0.299 ± 0.017 | −6.74 ± 0.08 log10 M | 0.037 ± 0.015 | −7.47 ± 0.09 log10 M | – | moderately better than colchicine | −7.15 ± 0.08 log10 M | – |
| CCCOc1c(OC)c(OC)cc2c1-c1ccc(OC)c(=O)cc1[C@@H](NC(C)=O)CC2 [Compound 8, N-[(7S)-2,3,10-trimethoxy-9-oxo-1-(propanoxy)-5,6,7,9-tetrahydrobenzo[α]heptalen-7-yl]acetamide] | 0.246 ± 0.013 | −7.80 ± 0.07 log10 M | 0.044 ± 0.020 | −7.68 ± 0.09 log10 M | 0.433 ± 0.013 | −7.50 ± 0.12 log10 M | 0.000 ± 0.013 | −8.48 ± 0.10 log10 M | 0.181 ± 0.020 | −7.49 ± 0.13 log10 M | 0.072 ± 0.014 | −7.98 ± 0.03 log10 M | – | moderately better than colchicine | −7.86 ± 0.10 log10 M | – |
| CCCOc1cc2c(c(OC)c1OC)-c1ccc(SC)c(=O)cc1[C@@H](NC(C)=O)CC2 [Compound 43, N-[(7S)-3-propoxy-1,2-dimethoxy-10-methylsulfanyl-9-oxo-5,6,7,9-tetrahydrobenzo[α]heptalen-7-yl]acetamide] | 0.198 ± 0.024 | −8.76 ± 0.11 log10 M | 0.025 ± 0.025 | −8.66 ± 0.12 log10 M | 0.399 ± 0.015 | −8.71 ± 0.10 log10 M | 0.010 ± 0.014 | −8.55 ± 0.09 log10 M | 0.214 ± 0.022 | −8.51 ± 0.15 log10 M | – | – | stronger than colchicine | consistently the most effective | −8.67 ± 0.11 log10 M | 2.13 ± 0.77 nM |
